This is an account of results in patent publication US6829540B1, “Drug discovery using multiple membrane mimetic affinities” (priority 1997, dated 2004).

Read-outs that look alike come from different tables or passages of the source.

Data set [1] is described as follows: HPLC membrane binding on immobilized artificial membrane IAM.PC. As to conditions: for Membrane affinity IAM.PC: Ln weighted, Table 3; for Membrane binding properties IAM.PC: Table 1. Type of data set: physicochemical. The protocol:
(§1) The analysis is made by pattern matching membrane binding constants measured on immobilized artificial membrane columns in a high performance liquid chromatography system. Two or more immobilized artificial membrane chromatographic columns are used. Each test compound is injected and chromatographed on each column and the peak width and the peak time of the test compound is recorded and normalized to an internal or external standard. Thus experimentally measured selectivity values (αk′=k′/k′ standard) and normalized standard deviations (αsd=σ/σstandard) were calculated for both the test compounds and compounds of known biological properties. Pattern matching using vector calculus, multivariate analysis or principal component analysis of the αk′ and αsd values of the test compound and the control compounds allows comparison of the membrane binding properties of the test compounds and each of the control compounds or, if the control compounds all have a common biological activity/property, average or mean membrane binding values of the set of control compounds for each membrane surface.
(§2) Membrane binding constants (k′ values) are calculated in accordance with the formula k′=(tr−t0)/t0 wherein tr is the retention time and t0 is the dead time obtained from each injection; however, t0 in the denominator was obtained by averaging the experimentally determined t0 from all injections for each day the data are collected.
(§3) The use of chromatography on immobilized artificial membranes provides data characteristic of both equilibrium binding to the respective membrane mimetic surface (k′ values) and the kinetics of mass transfer between the immobilized artificial membrane surface and the mobile phase (i.e. δ values). […] This unavoidable variation in the experimentally determined k′ and δ values for each test compound and each control compound is eliminated, for pattern matching purposes, by normalizing k′ and δ values to an internal or external standard compound chromatographed on each immobilized artificial membrane column. Thus k′ and δ values for the test compounds are each divided by the respective k′ and δ values of the standard to calculate αk′ and αsd, the selectivity values and normalized standard deviations, respectively. For k′ values, α denotes the selectivity of the immobilized artificial membrane chromatographic surface for molecular recognition of the analyte; α is a thermodynamic property and corresponds to a ratio of membrane partition coefficients.
(§4) Thus, in one embodiment of this invention the membrane binding properties of six hallucinogens were measured on immobilized artificial membranes (IAMs) prepared from phosphatidylcholine (IAM.PC), phosphatidylserine (IAM.PS), phosphatidylethanolamine (IAM.PE), and sphingomyelin (IAM.SM). Mean vectors were calculated for several therapeutic classes of compounds. The calculated mean vector (i.e., the average vector representing a group of compounds with similar biological activity) is shown in Table 1 for hallucinogenic compounds.
(§5) In one embodiment of this invention membrane binding constants are measured by injecting the drugs into high performance liquid chromatographs (HPLC) using immobilized artificial membrane (IAM) columns using the following IAM stationary phases:
(§6) ^esterIAM.PC^C10/C3, ^esterIAM.PE^C10/C3, ^esterIAM.PS^C10/C3, and ^esterIAM.SM^C10/C3
(§7) The peak position of the drug in the chromatogram is a measure of the affinity of the compound for the immobilized membrane surface. The retention time (peak time) was used to calculate the capacity factor, k′, of the compound for the IAM surface. Capacity factors are proportional to equilibrium membrane binding constants K according to
(§8) Membrane binding data (numerical values relating to interaction with membranes or membrane mimetic surfaces) were obtained using HPLC chromatography on a multiplicity of membrane mimetic surfaces, preferably immobilized artificial membranes (IAMs). […]

Data set [2] is described as follows: HPLC membrane binding on immobilized artificial membrane IAM.PE. Type of data set: physicochemical. As to conditions: for Membrane affinity IAM.PE: Ln weighted, Table 3; for Membrane binding properties IAM.PE: Table 1. The protocol: as §1, §2, §3, §4, §5, §6, §7, §8
Data set [3] can be described thus: HPLC membrane binding on immobilized artificial membrane IAM.PS. Type of data set: physicochemical. As to conditions: for Membrane affinity IAM.PS: Ln weighted, Table 3; for Membrane binding properties IAM.PS: Table 1. The protocol:
as §1, §2, §3, §4, §5, §6, §7, §8

Data set [4] is described as follows: HPLC membrane binding on immobilized artificial membrane IAM.SM. Type of data set: physicochemical. As to conditions: for Membrane affinity IAM.SM: Ln weighted, Table 3; for Membrane binding properties IAM.SM: Table 1. As for the experimental part: as §1, §2, §3, §4, §5, §6, §7, §8
For data set [5] the following is noted: cited from earlier work.
The mark [6] stands for this setting: Table 6, low oral absorption training set.
Where [7] appears, read: Table 9, compounds with low oral absorption.
Setting [8] is: Table 7, compounds completely absorbed.
Where [9] appears, read: Table 8, high oral absorption training set.

As to `COc1cc(CC(C)N)c(OC)cc1Br` (stereo not drawn) [2,5-dimethoxy-4-bromoamphetamine], in data set [1], the “Membrane affinity IAM.PC” value stood at 2.07 and the “Membrane binding properties IAM.PC” value worked out at 15.260. Further, in data set [2], the “Membrane affinity IAM.PE” value is recorded as 3.22 and the “Membrane binding properties IAM.PE” value is 20.950. Further, in data set [3], the “Membrane affinity IAM.PS” value came out at 4.68 and the “Membrane binding properties IAM.PS” value is given as 143.400. For the same compound, in data set [4], the “Membrane affinity IAM.SM” value was 1.62 and the “Membrane binding properties IAM.SM” value is listed as 20.970.
Turning to `COc1cc(C[C@@H](C)N)c(OC)cc1I` [(R)-2,5-dimethoxy-4-iodoamphetamine], the “Membrane binding properties IAM.PC” value in data set [1] is listed as 55.53. Besides, the “Membrane binding properties IAM.PE” value in data set [2] is 29.76. In addition, the “Membrane binding properties IAM.PS” value in data set [3] stood at 260.200. In data set [4], the “Membrane binding properties IAM.SM” value is 53.41.
For the compound `COc1cc(CC(C)N)c(OC)cc1I` (stereo not drawn) [DOI], the “Membrane affinity IAM.PC” value in data set [1] was determined as 2.61. Besides, the “Membrane affinity IAM.PE” value in data set [2] worked out at 3.73. In data set [3], the “Membrane affinity IAM.PS” value was 6.13. Besides, in data set [4], the “Membrane affinity IAM.SM” value is 2.14.
In the case of `CC(N)Cc1ccc2c(c1)OCO2` (stereo not drawn) [MDA, 3,4-methylendioxyamphetamine], in data set [1], the “Membrane affinity IAM.PC” value is reported as 0.298. Moreover, in data set [2], the “Membrane affinity IAM.PE” value came out at 1.32. For the same compound, the “Membrane affinity IAM.PS” value in data set [3] is given as 3.28. In data set [4], the “Membrane affinity IAM.SM” value is −0.0647.
As to `CCCC(=O)Nc1ccc(OCC(O)CNC(C)C)c(C(C)=O)c1` (stereo not drawn) [acebutolol], the “Oral Absorption (%)” value in data set [5] (setting [6]) and in data set [5] (setting [7]) was 37% throughout.
Regarding `C=CCc1ccccc1OCC(O)CNC(C)C` (stereo not drawn) [alprenolol], the “Oral Absorption (%)” value in data set [5] (setting [8]) and in data set [5] (setting [9]) was 96% throughout.
`CNC1=Nc2ccc(Cl)cc2C(c2ccccc2)=[N+]([O-])C1` [chlorodiazepoxide, chlordiazepoxide]: the “Oral Absorption (%)” value in data set [5] (setting [8]) and in data set [5] (setting [9]) was 100% in each case.
For the compound `CCOC(=O)C(C)(C)Oc1ccc(Cl)cc1` [clofibrate], the “Oral Absorption (%)” value in data set [5] (setting [8]) and in data set [5] (setting [9]) was 95% throughout.
`O=C1CN=C(c2ccccc2Cl)c2cc([N+](=O)[O-])ccc2N1` [clonazepam]: the “Oral Absorption (%)” value in data set [5] (setting [8]) and in data set [5] (setting [9]) was 98% in each case.
Regarding `Clc1cccc(Cl)c1N=C1NCCN1` [clonidine], the “Oral Absorption (%)” value in data set [5] (setting [8]) and in data set [5] (setting [9]) was 95% throughout.
For the compound `C[C@]12C[C@H](O)[C@H]3[C@@H](CCC4=CC(=O)CC[C@@]43C)[C@@H]1CC[C@@H]2C(=O)CO` [corticosterone], the “Oral Absorption (%)” value in data set [5] (setting [8]) and in data set [5] (setting [9]) was 100% in each case.
Take `COc1cc([C@@H]2c3cc4c(cc3[C@@H](O[C@@H]3O[C@@H]5CO[C@@H](C)O[C@H]5[C@H](O)[C@H]3O)[C@H]3COC(=O)[C@H]23)OCO4)cc(OC)c1O` [etoposide]: the “Oral Absorption (%)” value in data set [5] (setting [6]) and in data set [5] (setting [7]) was 50% in each case.
As to `CNC1(c2ccccc2Cl)CCCCC1=O` (stereo not drawn) [ketamine], the “Oral Absorption (%)” value in data set [5] (setting [6]) and in data set [5] (setting [7]) was 20% each time.
On to `COc1cc(CCN)cc(OC)c1OC` [mescaline], for which, in data set [1], the “Membrane affinity IAM.PC” value was −0.477 and the “Membrane binding properties IAM.PC” value is on record as 1.476. Also, in data set [2], the “Membrane affinity IAM.PE” value was 0.670 and the “Membrane binding properties IAM.PE” value is 2.134. Besides, in data set [3], the “Membrane affinity IAM.PS” value came to 2.43 and the “Membrane binding properties IAM.PS” value is on record as 12.280. Moreover, in data set [4], the “Membrane affinity IAM.SM” value is reported as −0.715 and the “Membrane binding properties IAM.SM” value was 2.074.
With `COc1cc(CCNC(C)=O)cc(OC)c1OC` [n-acetylmescaline], the “Membrane binding properties IAM.PC” value in data set [1] is given as 0.706. For the same compound, the “Membrane binding properties IAM.PE” value in data set [2] was found to be 1.323. Also, in data set [3], the “Membrane binding properties IAM.PS” value stood at 0.736. Moreover, in data set [4], the “Membrane binding properties IAM.SM” value worked out at 1.051.
As for `CC(N)Cc1ccc(I)cc1` (stereo not drawn) [p-iodoamphetamine], the “Membrane binding properties IAM.PC” value in data set [1] is 24.880. In addition, the “Membrane binding properties IAM.PE” value in data set [2] is 33.660. Moreover, the “Membrane binding properties IAM.PS” value in data set [3] is recorded as 258.100. In addition, in data set [4], the “Membrane binding properties IAM.SM” value turned out to be 32.410.
Consider `CCC1(c2ccccc2)C(=O)NC(=O)NC1=O` [phenobarbital], for which the “Oral Absorption (%)” value in data set [5] (setting [8]) and in data set [5] (setting [9]) was 100% throughout.
In the case of `O=C1NC(=O)C(c2ccccc2)(c2ccccc2)N1` [phenytoin], the “Oral Absorption (%)” value in data set [5] (setting [8]) and in data set [5] (setting [9]) was 100% each time.
On to `CN(C)CCc1c[nH]c2cccc(O)c12` [psilocin], for which, in data set [1], the “Membrane affinity IAM.PC” value stood at 0.900 and the “Membrane binding properties IAM.PC” value is on record as 4.656. In addition, in data set [2], the “Membrane affinity IAM.PE” value amounted to 1.79 and the “Membrane binding properties IAM.PE” value amounted to 4.818. Besides, in data set [3], the “Membrane affinity IAM.PS” value came to 2.80 and the “Membrane binding properties IAM.PS” value amounted to 4.941. Moreover, in data set [4], the “Membrane affinity IAM.SM” value is given as 0.502 and the “Membrane binding properties IAM.SM” value stood at 7.532.
Turning to `CNC(=C[N+](=O)[O-])NCCSCc1ccc(CN(C)C)o1` [ranitidie, ranitidine], the “Oral Absorption (%)” value in data set [5] (setting [6]) and in data set [5] (setting [7]) was 50% throughout.
With `CCN1CCCC1CNC(=O)c1cc(S(N)(=O)=O)ccc1OC` (stereo not drawn) [sulpiride], the “Oral Absorption (%)” value in data set [5] (in vivo, po) is recorded as 36%.
